Columns and labels:
Assay type in all cases: physicochemical
[1] = In vitro dissolution test of Drug 5 compositions in MFD solution; set-up: AUC90: concentration or dose not given beside the values; settings: for AUC / Drug 5 Concentration: Table 27; for AUC / AUC90 / Cmax90: Drug 5, MFD solution; for Drug 5 Concentration: MFD solution; for AUC90 / Cmax90: 0 to 90 min
Method: (§1) For Control C2, the crystalline form of the drug alone was used without further processing. […] The tubes were placed in a 37° C. temperature-controlled bath, and 1.8 mL phosphate buffered saline (PBS) at pH 6.5 and 290 mOsm/kg was added to each. The samples were quickly mixed using a vortex mixer for about 60 seconds. The samples were centrifuged at 13,000 G at 37° C. for 1 minute. The resulting supernatant solutions were then sampled and diluted 1:6 (by volume) with methanol and then analyzed by high-performance liquid chromatography (HPLC). The contents of the tubes were mixed on the vortex mixer and allowed to stand undisturbed at 37° C. until the next sample was taken. Samples were collected at 4, 10, 20, 40, 90, and 1200 minutes.
In vitro dissolution tests were performed for Examples 28-29, using the procedure described in Example 4, with the following exceptions: 9 mg each of the dispersions of Examples 28-29 were added to separate respective centrifuge tubes. 1.8 mL of MFD solution was then added to each tube. For comparison, Control C12 was prepared consisting of 0.36 mg of crystalline Drug 5 added to 1.8 mL of MFD solution for a total theoretical concentration of 200 μg/mL if all of the drug dissolved. Drug 5 concentration in the samples was determined using HPLC. A Waters Symmetry C18 HPLC column was used with a mobile phase of 50 vol. % (0.3 vol. % glacial acetic acid, 0.2 vol. % TEA in water) and 50 vol. % acetonitrile. UV detection was measured at 260 nm.
(§2) In vitro dissolution tests were performed for Examples 35-38, using the procedures described in Example 4, with the following exceptions: 14.4 mg each of Example 35 and 36 were added to separate respective test tubes to which 1.8 mL of PBS solution was added, so that the total theoretical Drug 4 concentration was approximately 200 μg/mL if all of Drug 4 were to dissolve completely; 3.6 mg each of Examples 37 and 38 were added in separate respective test tubes to 1.8 mL of MFD solution, to provide a total theoretical Drug 5 concentration of approximately 20 μg/mL if all of Drug 5 were to dissolve completely. Drug 4 concentration in the samples was determined as in Example 33. Drug 5 concentration in the samples was determined as in Example 34.

[2] = In vitro dissolution test of Drug 2 compositions in MFD solution; set-up: AUC / AUC90: concentration or dose not given beside the values; settings: for Drug 2: MFD solution, 37° C.
Method: as §1
This example measures' the concentration-enhancing properties of the PVP dispersion of Example 14. Dissolution tests were performed, as described in Example 4 with the following exceptions: the PBS solution contained 7.3 mM sodium taurocholic acid and 1.4 mM 1-palmitoyl-2-oleyl-sn-glycero-3-phosphocholine (model fasted duodenal (MFD) solution). 1.8 mg of dispersion was added to 1.8 mL of test media. For Control C6, 0.18 mg of the crystalline form of the Drug 2 alone was used without further processing and added to 1.8 mL of MFD solution.

[3] = In vitro dissolution test of Drug 3 compositions in MFD solution; set-up: AUC / AUC90: concentration or dose not given beside the values; settings: for Drug 3: MFD solution, 37° C.
Method: as §1
Dissolution tests were performed, as described in Example 4 with the following exceptions: samples were tested in MFD Solution, and 1.8 mg of dispersion was added to 1.8 mLs of MFD Solution. Control C9 was simply 0.18 mg of the crystalline Drug 3 alone add to 1.8 mL of MFD solution.

[4] = In vitro dissolution test of Drug 4 compositions in PBS; settings: for AUC / [Drug 4]: Table 25; for AUC / AUC90 / Cmax90: Drug 4, PBS; for [Drug 4]: PBS; for AUC90 / Cmax90: 0 to 90 min
Method: as §1
In vitro dissolution tests were performed for Examples 25-27 using the procedure described in Example 4, with the following exceptions: 14.4 mg each of the dispersions of Examples 25-27 were added to separate, respective centrifuge tubes. 1.8 mL PBS was added to each tube. For comparison, Control C11 was prepared consisting of 3.6 mg of crystalline Drug 4 added to 1.8 mL PBS. Drug 4 concentration in the samples was determined using HPLC. A Zorbax SB C18 HPLC column was used with a mobile phase of 35 vol. % water and 65 vol. % methanol. UV detection was measured at 297 nm.
as §2

[5] = Drug 2, MFD solution, 0 to 90 min
[6] = Drug 3, MFD solution, 0 to 90 min

## NC(=O)N(O)C1C=C(c2cccc(Oc3ccc(F)cc3)c2)CC1 (single isomer, unassigned; (+)) [Example C12, (+)-N-{3-[3-(4-fluorophenoxy)phenyl]-2-cyclopenten-1-yl}-N-hydroxyurea]
[1]; time 0 min
  AUC: 0 µg·min/mL
  Drug 5 Concentration: 0 µg/mL
[1]; time 4 min
  AUC: 0 µg·min/mL
  Drug 5 Concentration: 9 µg/mL
[1]; time 10 min
  AUC: 100 µg·min/mL
  Drug 5 Concentration: 15 µg/mL
[1]; time 20 min
  AUC: 300 µg·min/mL
  Drug 5 Concentration: 21 µg/mL
[1]; time 40 min
  AUC: 800 µg·min/mL
  Drug 5 Concentration: 27 µg/mL
[1]; time 90 min
  AUC: 2,200 min*μg/mL
  Drug 5 Concentration: 32 µg/mL
[1]; time 1200 min
  AUC: 43,300 min*μg/mL
  Drug 5 Concentration: 42 µg/mL
[1]; Table 28
  AUC90: 2,200 min*μg/mL
  Cmax90: 32000 ng/mL
[1]; Table 32
  Cmax90: 32000 ng/mL
[1]; Table 32, in min·µg/mL
  AUC90: 2,200

## O=C(NC(Cc1ccccc1)C(O)CC(C(=O)NO)C1CCC(F)(F)CC1)c1cnc2ccccc2n1 (stereo not shown) [Example C6, quinoxaline-2-carboxylic acid [1-benzyl-4-(4,4-difluoro-cyclohexyl)-2-hydroxy-4-hydroxycarbamoyl-butyl]-amide]
[2]; [5]
  AUC90: 400 µg·min/mL
  Cmax90: 7000 ng/mL
[2]; Drug 2, MFD solution, time 0 min
  AUC: 0 min*µg/mL
[2]; Drug 2, MFD solution, time 4 min
  AUC: 0 min*µg/mL
[2]; Drug 2, MFD solution, time 10 min
  AUC: 0 min*µg/mL
[2]; Drug 2, MFD solution, time 20 min
  AUC: 100 min*µg/mL
[2]; Drug 2, MFD solution, time 40 min
  AUC: 100 min*µg/mL
[2]; Drug 2, MFD solution, time 90 min
  AUC: 400 min*µg/mL
[2]; time 0 min
  Drug 2: 0 µg/mL
[2]; time 4 min
  Drug 2: 2 µg/mL
[2]; time 10 min
  Drug 2: 4 µg/mL
[2]; time 20 min
  Drug 2: 4 µg/mL
[2]; time 40 min
  Drug 2: 4 µg/mL
[2]; time 90 min
  Drug 2: 7 µg/mL

## O=C(NC(Cc1ccccc1)C(O)CC(C(=O)NO)C1(O)CCC(F)(F)CC1)c1cnc2ccccc2n1 (stereo not shown) [Example C9, quinoxaline-2-carboxylic acid [1-benzyl-4-(4,4-difluoro-1-hydroxy-cyclohexyl)-2-hydroxy-4-hydroxycarbamoyl-butyl]-amide]
[3]; [6]
  AUC90: 900 µg·min/mL
  Cmax90: 13000 ng/mL
[3]; Drug 3, MFD solution, time 0 min
  AUC: 0 min*µg/mL
[3]; Drug 3, MFD solution, time 4 min
  AUC: 0 min*µg/mL
[3]; Drug 3, MFD solution, time 10 min
  AUC: 0 min*µg/mL
[3]; Drug 3, MFD solution, time 20 min
  AUC: 100 min*µg/mL
[3]; Drug 3, MFD solution, time 40 min
  AUC: 300 min*µg/mL
[3]; Drug 3, MFD solution, time 90 min
  AUC: 900 min*µg/mL
[3]; time 0 min
  Drug 3: 0 µg/mL
[3]; time 4 min
  Drug 3: 4 µg/mL
[3]; time 10 min
  Drug 3: 6 µg/mL
[3]; time 20 min
  Drug 3: 8 µg/mL
[3]; time 40 min
  Drug 3: 11 µg/mL
[3]; time 90 min
  Drug 3: 13 µg/mL

## O=C(N[C@@H](Cc1ccccc1)[C@@H](O)C(=O)N1C[C@@H](O)[C@@H](O)C1)c1cc2cc(Cl)ccc2[nH]1 [Example C11, 5-chloro-1H-indole-2-carboxylic acid [(1S)-benzyl-3-((3R,4S)-dihydroxypyrrolidin-1-yl)-(2R)-hydroxy-3-oxypropyl]amide]
[4]; time 0 min
  AUC: 0 µg·min/mL
  [Drug 4]: 0 µg/mL
[4]; time 4 min
  AUC: 300 µg·min/mL
  [Drug 4]: 131 µg/mL
[4]; time 10 min
  AUC: 1,000 min*μg/mL
  [Drug 4]: 114 µg/mL
[4]; time 20 min
  AUC: 2,200 min*μg/mL
  [Drug 4]: 124 µg/mL
[4]; time 40 min
  AUC: 4,500 min*μg/mL
  [Drug 4]: 107 µg/mL
[4]; time 90 min
  AUC: 10,300 min*μg/mL
  [Drug 4]: 126 µg/mL
[4]; time 1200 min
  AUC: 120,200 min*μg/mL
  [Drug 4]: 72 µg/mL
[4]; Table 26
  AUC90: 10,300 min*μg/mL
  Cmax90: 131000 ng/mL
[4]; Table 31
  Cmax90: 131000 ng/mL
[4]; Table 31, in min·µg/mL
  AUC90: 10,300
